Results reported in PMC11091220, “Metabolism-driven in vitro/in vivo disconnect of an oral ERɑ VHL-PROTAC” (Communications Biology, 2024).
Values joined by “and” are separate entries in the source; they are usually repeats but may differ in a detail not shown here. Identical values can stand only once.

Columns and labels:
[1] = target: T1, ERα (Homo sapiens, UniProt P03372); assay: SILAC pulse-chase and mass spectrometry, ERα turnover in MCF7 cells; format: cell-based; conditions: 1 µM
T1 construct: endogenous in cells; host or cells: MCF7 (also MCF7 engineered to express Cas9)
T1 sequence (P03372 1-595): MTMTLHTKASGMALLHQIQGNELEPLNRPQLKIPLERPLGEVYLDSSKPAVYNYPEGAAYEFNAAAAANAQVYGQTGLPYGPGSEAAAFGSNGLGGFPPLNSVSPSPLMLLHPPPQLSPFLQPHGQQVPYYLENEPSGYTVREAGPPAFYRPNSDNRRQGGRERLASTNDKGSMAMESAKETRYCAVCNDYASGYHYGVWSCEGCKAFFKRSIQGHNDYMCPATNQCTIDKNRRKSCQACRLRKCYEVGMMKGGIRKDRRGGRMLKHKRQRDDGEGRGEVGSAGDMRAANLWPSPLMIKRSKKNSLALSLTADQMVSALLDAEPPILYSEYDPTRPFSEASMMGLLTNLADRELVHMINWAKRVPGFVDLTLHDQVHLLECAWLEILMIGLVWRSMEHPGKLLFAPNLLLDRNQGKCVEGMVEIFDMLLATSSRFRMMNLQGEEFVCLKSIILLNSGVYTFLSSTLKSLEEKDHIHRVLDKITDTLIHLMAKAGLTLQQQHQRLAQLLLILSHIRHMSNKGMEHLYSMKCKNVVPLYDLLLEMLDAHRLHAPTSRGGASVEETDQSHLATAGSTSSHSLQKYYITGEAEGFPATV
Method: MCF7 cells were grown for a minimum of 2 passages in SILAC media (Pierce, Thermo Scientific) containing ^13C6^15N4 arginine and ^13C6 lysine. The extent of stable isotope incorporation was determined by mass spectrometry. For the assay, cells were plated at 1.2 x 10^6 cells/well into 6-well TC-treated plates in media containing 5% double charcoal stripped FBS^13,C6^15N4 arginine and ^13C6^15N2 lysine for 24 hours. At time 0, the media containing isotopically heavy arginine and lysine was replaced with media containing unlabelled equivalents plus either AZ’6421, fulvestrant or DMSO control. […] Equal concentrations of timecourse lysates were mixed with an internal standard lysate derived from ^[…] lysine labelled MCF7 cells. ER protein was immunoprecipitated overnight at 4 °C with an ER antibody (Rabbit clone SP1, Thermo Scientific) and immobilised onto a U-bottomed Nunc MaxiSorp plate (Thermo Scientific). Wells were sequentially washed with each of the following; RIPA buffer, PBS and water. Samples were digested by addition of 30 μL well sequencing grade trypsin (Promega) in 50 mM ammonium bicarbonate at 37 °C for a minimum of 16 hours. The resultant peptide samples were acidified and analysed by selected reaction monitoring (SRM) mass spectrometry. Protein half-life was determined using the one-phase exponential decay function in GraphPad PRISM where Y = (Y0 - Plateau)*exp(-K*X) + Plateau.

[2] = target: T1, ERα; assay: ERα degradation in a panel of ER+ cell lines (western blot); format: cell-based; conditions: 100 nM; for ERa degradation vs vehicle: 48 h, listed as AZ'6421
Method: Fig. 3 AZ’6421 potently degrades ERα and inhibits ER-regulated gene transcription. a MCF7 cells were treated with increasing concentrations of AZ’6421 for 24 h and probed for ERα by immunoblot analysis. b SILAC experiment to measure ERα peptide turnover in MCF7 cells. Cells cultured in the presence of heavy L-arginine were switched at time T = 0 to media containing light L-arginine plus 0.1% DMSO, 1 µM AZ’6421, or 1 µM fulvestrant. Cells were collected at the indicated timepoints and the proportion of heavy-labelled ERα assessed by mass spectrometry. % ERα heavy peptide is plotted relative to DMSO control. Data points show the mean of 3 independent experiments with points in bold representing the mean. c A panel of ER+ cells were treated with 100 nM AZ’6421 for 48 h. ERα was normalised to vinculin and expressed as % of vehicle control. Data points represent an independent experiment for each cell line, error bars indicate ± s.e.m. d Heatmap showing changes in mRNA expression of a panel of ER-regulated genes. MCF7 and CAMA1 cells were stimulated with 0.1 nM estradiol in the presence of DMSO, 100 nM fulvestrant (Fulv), 100 nM AZD9833, or 100 nM AZ’6421 for 24 hours. Data points show 3 independent experiments. e Growth inhibition curves for MCF7 and CAMA1 cells, treated with increasing concentrations of AZ’6421 for 6 days. Data points show 4–5 independent experiments, bold points represent the mean. TEXT PRINTED IN THE PICTURE: (c) no label printed: Mean % ER Degradation, MCF-7: 96; Mean % ER Degradation, CAMA-1: 92; Mean % ER Degradation, ZR75-1: 95; Mean % ER Degradation, MDA-MB-134: 99; Mean % ER Degradation, BT474: 83; Mean % ER Degradation, HCC1428: 92; Mean % ER Degradation, T47D: 87 DOUBTS OF THE COPYIST ABOUT THIS PICTURE: Panel c prints no substance label for the Mean % ER Degradation values, so the substance is left empty.
Cells were seeded into 12-well tissue culture-treated plates at 0.5 x 10^6 cells/well in phenol red-free RPMI containing 5% (v/v) charcoal-stripped FBS (F6765, Sigma) and left to adhere overnight. In experiments to detect agonism or for SILAC experiments, FBS was double stripped using activated charcoal. […] Expression levels of proteins were determined by standard western blotting techniques (BioRad 4%-12% Bis-Tris gels). Antibodies were diluted in 5% milk-PBS-Tween and protein levels were detected using Pierce WestDura chemiluminescent reagents followed by visualisation and quantification on a Syngene ChemiGenius Imager. Where blots were quantified, protein levels were normalised to beta-actin or vinculin control and expressed as % of vehicle control.

[3] = tested on: PGR mRNA; assay: PD study in CTC174 PDX model, tumour PGR mRNA by qPCR; format: in vivo, mouse; conditions: 100 mg/kg BID, 4 days, individual animals; listed as AZ'6421

Cc1ncsc1-c1ccc(CNC(=O)[C@@H]2C[C@@H](O)CN2C(=O)[C@@H](NC(=O)COCCCOCCCOc2cc(F)c([C@@H]3c4[nH]c5ccccc5c4C[C@@H](C)N3CC(C)(C)F)c(F)c2)C(C)(C)C)cc1 [Compound 5]
% heavy (ERα heavy peptide) ([1]; Time 0, MCF7): 100.0%
% heavy (ERα heavy peptide) ([1]; Time 0.5, listed as AZ'6421): 51.8% and 84.4% and 43.4%
% heavy (ERα heavy peptide) ([1]; Time 1, listed as AZ'6421): 24.8% and 28.9% and 24.0%
% heavy (ERα heavy peptide) ([1]; Time 2, listed as AZ'6421): 13.8% and 13.6% and 9.7%
% heavy (ERα heavy peptide) ([1]; Time 4, listed as AZ'6421): 5.2% and 6.5% and 4.4%
% heavy (ERα heavy peptide) ([1]; Time 7, listed as AZ'6421): 3.1% and 4.5% and 3.3%
% heavy (ERα heavy peptide) ([1]; Time 24, listed as AZ'6421): 3.2% and 3.4% and 2.7%
% heavy (ERα heavy peptide) ([1]; Time 48, listed as AZ'6421): 3.5% and 3.4% and 2.6%
ERα protein abundance, % of the vehicle ([2]; all cell lines tested): less than 20%
ERa degradation vs vehicle ([2]; BT474): 4.37 and 5.82
ERa degradation vs vehicle ([2]; HCC1428): 9.04 and 6.44
ERa degradation vs vehicle ([2]; MDA-MB-134): 1.1 and 1.64
PGR mRNA expression in tumour (% of vehicle) [3]: 12.5811% and 15.4178% and 10.0087% and 25.9295% and 45.882%
